Source: ChEMBL document CHEMBL4689842, “EUbOPEN Chemogenomics Library wave 1” (2021)

What was measured:
Format in all cases: toxicity, cell-based
HEK-293T = test: Incucyte cell viability with HEK293T; conditions: human, 10 µM, compound concentration 10 uM
U2OS = test: Incucyte cell viability with U2OS; conditions: human, 10 µM, compound concentration 10 uM
Fibroblast = test: Incucyte cell viability with human fibroblast; conditions: 10 µM, compound concentration 10 uM
[1] = 0 h, replicate number 1, timepoint 0 hours
[2] = 0 h, replicate number 2, timepoint 0 hours
[3] = 6 h, replicate number 2, timepoint 6 hours
[4] = 12 h, replicate number 2, timepoint 12 hours
[5] = 18 h, replicate number 2, timepoint 18 hours
[6] = 24 h, replicate number 1, timepoint 24 hours
[7] = 24 h, replicate number 2, timepoint 24 hours
[8] = 6 h, replicate number 1, timepoint 6 hours
[9] = 12 h, replicate number 1, timepoint 12 hours
[10] = 18 h, replicate number 1, timepoint 18 hours
Also: filed as whole numbers so only -1 and 0 and 1 occur.

Row | Structure (SMILES) | Growth Rate (HEK-293T; [1]) | Growth Rate (HEK-293T; [2]) | Growth Rate (HEK-293T; [4]) | Growth Rate (HEK-293T; [6]) | Growth Rate (U2OS; [8]) | Growth Rate (U2OS; [9]) | Growth Rate (U2OS; [10]) | Growth Rate (U2OS; [6]) | Growth Rate (Fibroblast; [1]) | Growth Rate (Fibroblast; [8]) | Growth Rate (Fibroblast; [9]) | Growth Rate (Fibroblast; [10]) | Growth Rate (Fibroblast; [6]) | Growth Rate (HEK-293T; [8]) | Growth Rate (HEK-293T; [10]) | Growth Rate (U2OS; [1]) | Growth Rate (HEK-293T; [9]) | Growth Rate (U2OS; [5]) | Growth Rate (U2OS; [7]) | Growth Rate (Fibroblast; [5]) | other results
1 | CNc1nc(-c2ccc3c(N)n[nH]c3c2)cc(N2C[C@@H](C(=O)NC3CCCCC3)CC[C@H]2C)n1 | 0 | 1 | 0 | 1 | 1 | 0 | 0 | 0 | 0 | 1 | 0 | 0 | 0 |  |  |  |  |  |  |  | Growth Rate (HEK-293T; [3]): 0; Growth Rate (HEK-293T; [5]): 1; Growth Rate (HEK-293T; [7]): 0; Growth Rate (U2OS; [4]): 1
2 | COc1cc2c(cc1-c1c(C)noc1C)ncc1[nH]c(=O)n([C@H](C)c3ccccn3)c12 |  | 0 | 0 | 0 | 1 | 1 | 1 | 1 | 0 |  | 1 | 0 | 0 | 0 | 0 | 0 |  |  |  |  | Growth Rate (Fibroblast; [4]): 0
3 | FC(F)(F)c1c(N2CCC(c3ccccc3)CC2)ccn2c(CC3CC3)nnc12 |  | 0 |  | 0 | 0 | 0 | 0 | 0 | 0 | 1 | 1 | 1 | 0 | 0 | 0 |  | 0 | 1 | 1 | 0 | Growth Rate (U2OS; [2]): 0; Growth Rate (U2OS; [3]): 1; Growth Rate (U2OS; [4]): 1
4 | O=C(Nc1cccnc1)c1cc(-c2ccnc(F)c2)ccc1OCc1ccccc1 | 0 |  | 1 | 1 | 1 | 0 | 0 | 0 | 0 | 0 | 0 | 0 | 0 |  |  |  |  |  | 1 | 1 | Growth Rate (HEK-293T; [3]): 1; Growth Rate (HEK-293T; [7]): 0; Growth Rate (U2OS; [2]): 0; Growth Rate (Fibroblast; [7]): 1
5 | CCCc1cc(C)[nH]c(=O)c1CNC(=O)c1cc(-c2ccnc(N3CCN(C)CC3)c2)cc2c1cnn2C(C)C |  | 1 |  | 0 | 0 | 1 | 0 | 0 | 0 |  | 1 | 1 | 1 | 0 | 0 | 0 | 0 |  | 1 | 0 | Growth Rate (Fibroblast; [3]): 0; Growth Rate (Fibroblast; [7]): 0
6 | CNc1nc(Nc2cnn([C@H]3CCN(C4COC4)C[C@@H]3F)c2Cl)ncc1C(F)(F)F | 0 |  |  | 0 | 0 | 1 | 1 | 1 | 0 |  | 1 | 1 | 0 | 0 | 0 | 1 | 0 | 0 | 0 |  | Growth Rate (Fibroblast; [7]): 1
7 | COc1ccccc1C(=O)Nc1cc2c(cc1N1CCCC1)n(C)c(=O)n2C | 0 | 1 |  | 1 |  |  |  |  | 0 | 1 | 1 | 1 | 1 | 0 | 1 | 0 | 1 |  |  |  | Growth Rate (Fibroblast; [3]): 0; Growth Rate (Fibroblast; [4]): 0
8 | Clc1cc2c(NC3CCCC3)nnc(-c3ccncc3)c2cc1Cl | 1 | 0 |  | 1 | 0 | 1 | 0 | 0 | 0 | 0 | 1 | 1 | 1 |  | 1 | 1 | 1 | 1 | 1 |  | Growth Rate (U2OS; [3]): 1
9 | O=C(NC[C@H](O)CN1CCc2ccccc2C1)c1ccnc(NC2CCC2)c1 | 1 | 0 |  |  | 0 | 0 | 0 | 0 |  | 0 | 0 | 0 | 1 |  |  | 1 |  | 1 | 1 | 1 | Growth Rate (HEK-293T; [7]): 1; Growth Rate (U2OS; [2]): 0; Growth Rate (U2OS; [3]): 1; Growth Rate (U2OS; [4]): 1; Growth Rate (Fibroblast; [2]): 0; Growth Rate (Fibroblast; [4]): 1
10 | Cn1cc(-c2ccc3occ(-c4ccccc4-c4ccccc4)c3n2)cn1 | 0 |  | 0 | 1 | 1 | 1 | 0 | 1 |  | 1 | 0 | 0 | 0 |  | 1 | 0 |  | 1 |  | 1 | Growth Rate (HEK-293T; [3]): 1; Growth Rate (HEK-293T; [7]): 0; Growth Rate (Fibroblast; [2]): 0; Growth Rate (Fibroblast; [4]): 1
11 | CN(C)C(=O)c1ccc(-c2cc(C(=O)N(C)C3CCCC3)no2)cc1O | 0 |  | 1 | 1 | 1 | 1 | 1 | 1 | 0 |  | 1 | 1 | 1 | 1 | 1 | 1 | 0 | 0 | 0 |  | 
12 | C[C@H]1CCCN1Cc1nc2cc(NC(=O)c3ccc4cnccc4c3)ccc2[nH]1 | 1 | 0 |  | 1 | 0 | 1 | 1 | 1 | 0 | 0 | 1 | 0 | 0 | 0 | 1 | 0 | 0 |  |  | 1 | Growth Rate (HEK-293T; [7]): 0; Growth Rate (Fibroblast; [7]): 1
13 | C[C@@H](NCCc1ccc(O)cc1)[C@@H](O)c1ccc(O)cc1.Cl (relative stereo) | 0 |  | 1 | 0 |  | 1 | 1 | 1 | 0 |  |  |  |  | 0 | 0 | 0 | 0 |  |  | 1 | Growth Rate (HEK-293T; [3]): 1; Growth Rate (U2OS; [3]): 1; Growth Rate (Fibroblast; [7]): 1
14 | CCCCN(CCCC)C(=O)CN1C[C@@H](c2cc(OC)c3c(c2)OCO3)[C@H](C(=O)O)[C@H]1CC(C)(C)CCC [A-545] |  |  |  | 0 | 0 | 0 | 0 | 0 |  | 0 | 0 | 0 | 0 | 0 | 0 | 0 | 0 |  |  |  | Growth Rate (U2OS; [4]): 1
15 | CCCOc1ccc([C@@H]2[C@@H](C(=O)O)[C@H](c3ccc4c(c3)OCO4)CN2CC(=O)Nc2c(CC)cccc2CC)cc1 [A-1806262] | 0 |  |  | 1 | 1 | 1 | 1 | 1 | 0 | 1 | 1 | 1 | 1 | 1 | 1 | 0 | 1 | 0 | 0 | 0 | Growth Rate (HEK-293T; [7]): 0; Growth Rate (U2OS; [3]): 0; Growth Rate (Fibroblast; [2]): 1; Growth Rate (Fibroblast; [3]): 0; Growth Rate (Fibroblast; [4]): 0; Growth Rate (Fibroblast; [7]): 0
